Experimental data published in patent US20160199497A1, “Cholesterol Ester-Depleting Nanomedicine for Non-toxic Cancer Chemotherapy” (Purdue Research Foundation, priority 2014, published 2016).
pIC50: −log10 of the molar value.

Experiments:
[1] = test system: cancer cells (PC3, MIA-PaCa2, A549, HCT116) and normal cells (hVSMC, BR5); experiment: Cell viability of cancer and normal cells; format: cell-based, human; details: conventional chemotherapeutics, comparison
[2] = test system: GRP78, ATF4, CHOP in pancreatic cancer cells; experiment: Immunoblotting of ER stress markers; format: cell-based, human; details: time course
Method: After indicated treatments, cells were harvested and lysed in AMI lysis buffer (Active Motif) supplemented with protease and phosphatase inhibitor cocktail. Protein concentration was determined using the Bio-Rad protein assay kit. Protein extraction was subjected to immunoblotting with the antibodies against PTEN (Cell Signaling, […]), HMG CoA reductase (Biovision, 3952-100), ACAT-1 (Santa Cruz, sc-69836), GRP78 (Santa Cruz, sc-13968), ATF4 (Cell Signaling, 11815), CHOP (Cell Signaling, 2895), p-ERK1/2 (Cell Signaling, 4370S), ERK1/2 (Cell Signaling, 9102), p-Akt (Cell Signaling, […]), Akt (Cell Signaling, 4691), caveolin-1 (Cell Signaling, […]), SREBP-1 (Santa Cruz, 13551), and β-actin (Sigma, A5441). β-Actin was used as loading control for normalization.

[3] = Blood bioavailability / pharmacokinetics of avasimibe by LC-MS; format: in vivo, nude mice; details: nude, mouse, whole blood; oral avasimibe 15 mg/kg; read-out: area under curve (AUC) of avasimibe
Method: To compare the blood-bioavailability of avasimibe for oral and intravenous administrations, avasimibe solution in PBS (15 mg/kg) was orally administered to nude mice without tumors (n=3) using a plastic feeding tube (20 GA×38 mm). Avasimin solution in PBS (75 mg/kg, containing 15 mg/kg avasimibe) was intravenously administered to nude mice without tumor (n=3) through the tail vein. Blood samples (2 μl) were collected from the dorsal pedal vein at different time points post administration. […] To extract avasimibe, acetone (6 μl) was added to the blood solution, vortexed, and then the solution was centrifuged (×5000 g, 5 min). The supernatant (6 μl) was collected and dried under vacuum. The sample was stored at −20° C., and dissolved in 50 μl of methanol just before analysis. A linear standard curve of avasimibe in blood ranging of 0.01-100 μg/ml was created using the same extraction method described above. avasimibe concentration was determined using a liquid chromatography-mass spectroscopy (LC-MS) (Agilent 1200 HPLC-Agilent 6460 QQQ mass spec). […]
Based on this model, pharmacokinetic values for avasimibe delivered by intravenous administration of avasimin were determined including the initial volume of distribution, […]
The terminal and distribution half-times for two-compartment model were measured using the equations above, described in a previous report.

pancreatic cancer cells [4] = experiment: Fluorescence imaging of DiI labeled LDL uptake; format: cell-based, human
Method: DiI labeled LDL was made following previously described method (de Smidt P C & van Berkel T J C (1990) Cancer Res 50(23):7476-7482.). Cells were cultured in medium containing 10% lipodeficient serum with or without avasimibe treatment for 2 days. Then DiI-LDL was added to the medium at 50 μg/ml for 3 hours. Fluorescence images were acquired immediately after 3 h incubation using confocal microscope. The LDL uptake was quantified using ImageJ by analyzing the area fraction of uptake LDL particles out of the total cellular area.

[5] = test system: MIA PaCa-2 orthotopic tumors; experiment: Orthotopic mouse model of pancreatic cancer (MIA PaCa-2 luc/mCherry); format: in vivo
Method: In vivo study in orthotopic mouse model: All animal experiments were conducted following protocols approved by Purdue Animal Care and Use Committee (PACUC). NOD/scid/IL2R γ null (NSG) mice were purchased from In Vivo Therapeutics Core at Indiana University Simon Cancer Center (Indiana University, IN) under a Material Transfer Agreement with Jackson Laboratories, Inc. Orthotopic mouse model of pancreatic cancer was established following previously described protocol (Gu D, et al. (2013) Mol Cancer Ther 12(6):1038-1048.). MIA PaCa-2 cells with stable expression of luciferase and mCherry were collected and suspended at a concentration of 10×10^6 cells/ml. A total of 5×10^5 tumor cells in 50 μl medium was directly injected into the pancreas of NSG mice at 4-6 weeks old. After recovery from surgery, tumor growth was monitored by bioluminescent imaging using In Vivo Imaging System (IVIS).
In these studies, mice were randomly divided into two groups. For the treatment with avasimibe at 15 mg/kg, intraperitoneal (IP) injection was used on a daily base, starting one week after tumor cell implantation. After treated for 4 weeks, all the mice were sacrificed. Tumors and metastatic lesions in abdominal cavity, lymph nodes, liver, spleen, kidney, lung and heat were visualized with IVIS by mCherry fluorescent signal. Tumor volume and weight were measured ex vivo. Histological examination was performed to tumor and organ tissue slides after stained with Hematoxylin and eosin (H&E).
Murine paraffin-embedded slides were deparaffinized and rehydrated. Then antigens were retrieved in antigen unmasking solution (Vector Laboratories) with a 2100-Retriever (PickCell Laboratories). Samples were used to TUNEL assay (Roche, 11684817910) according to manufacturer's protocol. Fluorescent images were taken using Nikon A1R confocal microscopy under 40× objective.

tumors = experiment: Combination of avasimibe and gemcitabine in mice with tumors; format: in vivo; details: molar ratio about 5:1 to about 15:1 avasimibe to gemcitabine
pancreatic cancer cells [6] = experiment: Biochemical assay of free cholesterol in cells; format: cell-based, human; details: low to high concentration
Method: Lipid extraction from cell pellets and tissues was performed according to Folch et al (Folch J et al. (1957) J Biol Chem 226(1):497-509.). Cells with indicated treatments were collected and counted. CE and free cholesterol were measured according to the manufacturer's protocol (Amplex Red Cholesterol kit from Molecular Probes), and finally normalized by cell number.

PANC-1 = experiment: MTT cell viability, PANC-1; format: cell-based, human
Method: (§1) Cell viability was measured by Thiazolyl Blue Tetrazolium Blue (MTT) colorimetric assay (Sigma). Cell migration and invasion assays were performed in Transwell chambers (Corning) coated with and without Matrigel (BD Bioscience) respectively. 20% FBS and 0.2 ng/ml EGF were used as chemoattractant. 12 h (migration) or 24 h (invasion) after cells were seeded on top of the membrane, penetrating cells were stained with PI and counted under confocal microscope.

pancreatic cancer cells [7] = experiment: CE level in pancreatic cancer cells (Raman spectromicroscopy, ESI-MS); format: cell-based, human
Method: Label-free Raman spectromicroscopy, including stimulated Raman scattering (SRS) microscopy, coherent anti-stokes Raman scattering (CARS) microscopy and spontaneous Raman spectroscopy, was performed on unstained tissue slices (˜15 μm) or cells without any processing or labeling. SRS imaging was conducted using a femtosecond laser source, with the laser beating frequency tuned to the C-H stretching vibration mode at 2845 cm−1. The typical acquisition time for a 512×512 pixel image was 1.12 second.
CARS imaging and confocal Raman spectral analysis from individual LDs were performed on a single platform as described previously (40). A 5-picosecond laser at 707 nm was used as excitation beam for Raman spectral acquisition. Acquisition time for a typical spectra from individual LDs was 20 s, with the beam power maintained around 15 mW at sample. For each specimen, at least 10 spectra from individual LDs in different locations or cells were obtained.
LD amount was quantified based on the SRS images using software ImageJ. […] Area fraction of LDs out of total area of tissues or cells were measured to quantize the LD amount. […] The percentage of CE out of total lipids was used to quantize the CE level.
Lipids were extracted as described above. Cells with indicated treatments were collected and counted. […]

HPDE6 = experiment: MTT cell viability, HPDE6; format: cell-based; details: Homo sapiens; normal cells
Method: as §1

[8] = molecular target: HSA (human serum albumin) (Homo sapiens, UniProt P02768); experiment: Avasimibe binding to HSA: circular dichroism, Trp-214 fluorescence quenching, warfarin competitive binding
From the text: A quartz cell of 1 mm path length was used for spectrum measurement (190-260 nm). The spectra were collected with a data pitch of 1 nm, a scan speed of 10 nm per minute, and bandwidth of 1 nm. Each spectrum was the average of three scans.

MIA PaCa-2 = experiment: MTT cell viability, MIA PaCa-2; format: cell-based, human
Method: as §1

MIA PaCa-2 cells = experiment: Annexin V/propidium iodide staining and cell cycle analysis by flow cytometry; format: cell-based, human
MIA PaCa-2 cell = experiment: Transwell cell migration and invasion assays; format: cell-based, human
Method: as §1

[9] = Tissue distribution of avasimibe by LC-MS, 2 hr post administration; format: in vivo, PC3 tumor xenograft nude mice; details: oral avasimibe 15 mg/kg
Method: To measure the bioavailability of avasimibe in tissues, avasimin solution in PBS (75 mg/kg, containing 15 mg/kg avasimibe) was intravenously administered to PC3 tumor xenograft nude mice (n=3) through the tail vein. avasimibe solution in PBS (15 mg/kg) was also orally administered to PC3 tumor xenograft nude mice (n=3). At 2 hr-post injection, the mice were sacrificed, and the tissues and urine were harvested and weighed. After adding PBS (100 μl per […] tissue), the tissues were homogenized using a bead based homogenizer (Precellys®24, bertin technologies). Avasimibe was extracted from the homogenized tissue solution according to the same procedure used in avasimibe extraction from blood sample. Avasimibe in the tissue, urine, and feces specimens was quantified by LC-MS using the same conditions as the blood-bioavailability study. The amounts of avasimibe were quantitatively determined based on the calibration curve of avasimibe in blood.

PC3 cells = experiment: Cell viability IC50 in PC3 cells; format: cell-based; details: Homo sapiens, PC-3
[10] = 15 mg/kg per day intraperitoneally, 4 weeks

Sequence of HSA (human serum albumin) (P02768 25-609): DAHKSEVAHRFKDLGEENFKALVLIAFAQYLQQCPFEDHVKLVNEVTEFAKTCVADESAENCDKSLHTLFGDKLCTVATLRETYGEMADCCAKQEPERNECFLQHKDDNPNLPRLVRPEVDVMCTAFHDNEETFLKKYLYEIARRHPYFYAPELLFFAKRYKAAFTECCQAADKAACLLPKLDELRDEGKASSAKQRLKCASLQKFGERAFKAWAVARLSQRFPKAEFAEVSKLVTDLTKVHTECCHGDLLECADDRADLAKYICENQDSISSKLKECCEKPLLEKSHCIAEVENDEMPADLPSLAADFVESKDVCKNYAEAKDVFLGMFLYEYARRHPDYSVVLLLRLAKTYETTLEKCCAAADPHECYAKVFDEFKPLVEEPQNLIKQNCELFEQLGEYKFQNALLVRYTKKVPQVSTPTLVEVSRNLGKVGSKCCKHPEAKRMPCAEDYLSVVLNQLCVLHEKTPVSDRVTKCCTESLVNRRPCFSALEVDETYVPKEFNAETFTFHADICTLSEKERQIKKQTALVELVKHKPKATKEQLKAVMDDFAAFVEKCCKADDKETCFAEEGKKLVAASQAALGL

Compound: Nc1ccn([C@@H]2O[C@H](CO)[C@@H](O)C2(F)F)c(=O)n1 [gemcitabine]
- selectivity of cytotoxic effect [1]: non-selective cytotoxic effects

Compound: CC(C)c1cc(C(C)C)c(CC(=O)NS(=O)(=O)Oc2c(C(C)C)cccc2C(C)C)c(C(C)C)c1 [avasimibe]
- ATF4 level [2]: increase of transcription factor ATF4 within 12 hours
- CHOP expression [2]: appeared after 12 hour treatment and increased from 12 to 48 hour
- GRP78 expression level [2]: gradually increased over time
- AUC [3]: 3250 ng·h/mL
- uptake of DiI labeled LDL (pancreatic cancer cells [4]): significantly reduced uptake of LDL
- CE amount in tumor (SRS imaging and Raman) ([5]; 15 mg/kg per day intraperitoneally): Reduction of CE amount
- body weight [5, 10]: did not induce body weight loss
- metastatic lesions in lymph nodes and distant organs [5, 10]: largely suppressed
- tumor size, tumor growth rate, tumor volume and weight [5, 10]: significantly suppressed
- apoptotic cells in tumor tissues (TUNEL) ([5]; mouse, in vivo): Increased apoptotic cells
- free cholesterol in mouse pancreatic tumor tissues ([5]; mouse, in vivo): Increased free cholesterol
- effect in combination with gemcitabine (tumors): synergistic effect
- free cholesterol levels in cells (pancreatic cancer cells [6]): gradually increased
- proliferation rate of PANC-1 cells (PANC-1; 10 μM): significantly reduced the proliferation rate
- pIC50 (PANC-1; Homo sapiens, PANC-1): 4.63
- CE level in pancreatic cancer cells (pancreatic cancer cells [7]): effectively removed CE
- pIC50 (HPDE6): 4.28
- replacement of warfarin at the primary binding site of HSA ([8]; avasimibe:HSA 16:1, warfarin:HSA 10:1): complete replacement of warfarin
- binding affinity to HSA, compared with warfarin ([8]; inferred from complete replacement of warfarin): > 189000 M⁻¹
- proliferation rate of MIA PaCa-2 cells (MIA PaCa-2; 10 μM): significantly reduced the proliferation rate
- pIC50 (MIA PaCa-2; Homo sapiens, MIA PaCa-2): 4.96
- number of apoptotic cells (MIA PaCa-2 cells): largely increased
- cell invasion rate (MIA PaCa-2 cell; transwell with Matrigel, 24 h): significantly reduced
- cell migration rate (MIA PaCa-2 cell; transwell, 12 h): significantly reduced
- excretion of avasimibe through feces [9]: considerable amount of avasimibe was excreted through the feces
- avasimibe in the tumor tissue ([9]; 2 hr): not detectable
- main tissue of avasimibe distribution ([9]; 2 hr): most avasimibe was found in the liver tissue
- pIC50 (PC3 cells): 4.77
